In patent US9783537B2, “3-(4-ethylnylphenyl) pyridopyrimidinone compounds and process for preparation thereof useful as potential anticancer agents” (Council of Scientific & Industrial Research, priority 2013, dated 2017):
Read-outs that look alike come from different tables or passages of the source.

Key:
[1] = test system: two prostate cancer cell line (PC-3, DU-145); test: in vitro anticancer activity, prostate panel; format: cell-based; settings: Homo sapiens; two prostate cancer cell lines, exposure at least 48 h; read-out: GI50, range over panel
[2] = test system: seven ovarian cancer cell lines (IGROV1, OVCAR-3, OVCAR-4, OVCAR-5, OVCAR-8, NCI/ADR-RES and SK-OV-3); test: in vitro anticancer activity, ovarian panel; format: cell-based; settings: Homo sapiens, exposure at least 48 h, read-out: GI50, range over panel
PC-3 = test: SRB 48 h growth assay, Prostate PC-3; format: cell-based, human; settings: PC-3, Prostate
LOX IMVI = test: SRB 48 h growth assay, Melanoma LOX IMVI; format: cell-based, human
HS578T = test: SRB 48 h growth assay, Breast HS578T; format: cell-based, human
ACHN = test: SRB 48 h growth assay, Renal ACHN; format: cell-based, human
[3] = in vitro anticancer activity, non-small cell lung panel; format: cell-based; settings: Homo sapiens; nine non-small cell lung cancer cell lines, exposure at least 48 h; read-out: GI50, range over panel
MDA-MB-468 = test: SRB 48 h growth assay, Breast MDA-MB-468; format: cell-based, human; settings: MDA-MB-468, Breast
CCRF-CEM = test: SRB 48 h growth assay, Leukemia CCRF-CEM; format: cell-based, human
SNB-19 = test: SRB 48 h growth assay, CNS SNB-19; format: cell-based, human; settings: SNB-19, CNS
BT-549 = test: SRB 48 h growth assay, Breast BT-549; format: cell-based, human; settings: BT-549, Breast
OVCAR-8 = test: SRB 48 h growth assay, Ovarian OVCAR-8; format: cell-based, human; settings: OVCAR-8, Ovarian
[4] = test system: six leukemia cancer cell lines (CCRF-CEM, HL-60, K-562, MOLT-4, SR and RPMI-8226); test: in vitro anticancer activity, leukemia panel; format: cell-based; settings: Homo sapiens, exposure at least 48 h, read-out: GI50, range over panel
[5] = test system: six breast cancer cell line (MCF-7, MDA-MB-231/ATCC, HS 578T, TD-47D, MDA-MB-468 and BT-549); test: in vitro anticancer activity, breast panel; format: cell-based; settings: Homo sapiens; six breast cancer cell lines, exposure at least 48 h; read-out: GI50, range over panel
UACC-257 = test: SRB 48 h growth assay, Melanoma UACC-257; format: cell-based, human; settings: UACC-257, Melanoma
OVCAR-3 = test: SRB 48 h growth assay, Ovarian OVCAR-3; format: cell-based, human; settings: OVCAR-3, Ovarian
HCT-116 = test: SRB 48 h growth assay, Colon HCT-116; format: cell-based, human; settings: HCT-116, Colon
NCI-H522 = test: SRB 48 h growth assay, Non-small Cell Lung NCI-H522; format: cell-based, human
SK-OV-3 = test: SRB 48 h growth assay, Ovarian SK-OV-3; format: cell-based, human; settings: SK-OV-3, Ovarian
M14 = test: SRB 48 h growth assay, Melanoma M14; format: cell-based, human
NCI-H226 = test: SRB 48 h growth assay, Non-small Cell Lung NCI-H226; format: cell-based, human
[6] = test system: six CNS cancer cell line (SF-268, SF-295, SF-539, SNB-19, SNB-75 and U251); test: in vitro anticancer activity, CNS panel; format: cell-based; settings: Homo sapiens; six CNS cancer cell lines, exposure at least 48 h; read-out: GI50, range over panel
NCI/ADR-RES = test: SRB 48 h growth assay, Ovarian NCI/ADR-RES; format: cell-based, human
A549/ATCC = test: SRB 48 h growth assay, Non-small Cell Lung A549/ATCC; format: cell-based, human
NCI-H23 = test: SRB 48 h growth assay, Non-small Cell Lung NCI-H23; format: cell-based, human
MDA-MB-435 = test: SRB 48 h growth assay, Melanoma MDA-MB-435; format: cell-based, human; settings: MDA-MB-435, Melanoma
786-0 = test: SRB 48 h growth assay, Renal 786-0; format: cell-based, human; settings: 786-0, Renal
[7] = Homo sapiens, read-out: Growth Inhibition GI50
[8] = Homo sapiens, read-out: Log10 GI50 (converted)
[9] = Homo sapiens, read-out: Log10 LC50 (converted)

C#Cc1ccc(-n2c(/C=C/c3ccc(O)cc3)nc3ncccc3c2=O)cc1 [4b, (E)-3-(4-Ethynylphenyl)-2-(4-hydroxystyryl)pyrido[2,3-d]pyrimidin-4(3H)-one]
GI50 [1]: 3.96 to 5.36 µM
GI50 [2]: 2.33 to 9.67 µM
GI50 (PC-3; [7]): 3.87 µM
GI50 (PC-3; [8]): 3.89 µM
CC50 (PC-3; [9]): > 100 µM
Log10 TGI50 (PC-3): −4.32
Log10 TGI50 (LOX IMVI): >−4.00
GI50 (LOX IMVI; [7]): 5.35 µM
GI50 (LOX IMVI; [8]): 5.37 µM
CC50 (LOX IMVI; [9]): > 100 µM
Log10 TGI50 (HS578T): −4.52
GI50 (HS578T; Homo sapiens, Hs-578T, read-out: Growth Inhibition GI50): 3.24 µM
GI50 (HS578T; Homo sapiens, Hs-578T, read-out: Log10 GI50 (converted)): 3.24 µM
CC50 (HS578T; Homo sapiens, Hs-578T, read-out: Log10 LC50 (converted)): > 100 µM
Log10 TGI50 (ACHN): >−4.00
GI50 (ACHN; [7]): 6.31 µM
GI50 (ACHN; [8]): 6.31 µM
CC50 (ACHN; [9]): > 100 µM
GI50 [3]: 2.31 to 17.3 µM
GI50 (MDA-MB-468; [7]): 2.31 µM
GI50 (MDA-MB-468; [8]): 2.29 µM
CC50 (MDA-MB-468; [9]): > 100 µM
Log10 TGI50 (MDA-MB-468): −5.15
Log10 TGI50 (CCRF-CEM): >−4.00
CC50 (CCRF-CEM; Homo sapiens, CCKF-CEM, read-out: Log10 LC50 (converted)): > 100 µM
GI50 (CCRF-CEM; [7]): 3.3 µM
GI50 (CCRF-CEM; [8]): 3.31 µM
GI50 (SNB-19; [7]): 6.26 µM
GI50 (SNB-19; [8]): 6.31 µM
CC50 (SNB-19; [9]): > 100 µM
Log10 TGI50 (SNB-19): >−4.00
Log10 TGI50 (BT-549): −4.06
GI50 (BT-549; [7]): 7.51 µM
GI50 (BT-549; [8]): 7.59 µM
CC50 (BT-549; [9]): > 100 µM
GI50 (OVCAR-8; [7]): 4.39 µM
GI50 (OVCAR-8; [8]): 4.37 µM
CC50 (OVCAR-8; [9]): > 100 µM
Log10 TGI50 (OVCAR-8): −4.33
GI50 [4]: 3.58 to 5.55 µM
GI50 [5]: 2.83 to 5.85 µM
GI50 (UACC-257; [7]): 6.3 µM
GI50 (UACC-257; [8]): 6.31 µM
CC50 (UACC-257; [9]): > 100 µM
Log10 TGI50 (UACC-257): >−4.00
GI50 (OVCAR-3; [7]): 2.41 µM
GI50 (OVCAR-3; [8]): 2.4 µM
CC50 (OVCAR-3; [9]): > 72.4 µM
Log10 TGI50 (OVCAR-3): −5.24
Log10 TGI50 (HCT-116): >−4.00
GI50 (HCT-116; [7]): 5.07 µM
GI50 (HCT-116; [8]): 5.01 µM
CC50 (HCT-116; [9]): > 100 µM
Log10 TGI50 (NCI-H522): −5.22
GI50 (NCI-H522; [7]): 2 µM
GI50 (NCI-H522; [8]): 2 µM
CC50 (NCI-H522; [9]): > 100 µM
GI50 (SK-OV-3; [7]): 3.38 µM
GI50 (SK-OV-3; [8]): 3.39 µM
CC50 (SK-OV-3; [9]): > 100 µM
Log10 TGI50 (SK-OV-3): −4.54
Log10 TGI50 (M14): −5.09
GI50 (M14; [7]): 2.7 µM
GI50 (M14; [8]): 2.69 µM
CC50 (M14; [9]): > 100 µM
Log10 TGI50 (NCI-H226): −4.88
GI50 (NCI-H226; [7]): 2.58 µM
GI50 (NCI-H226; [8]): 2.57 µM
LC50 (NCI-H226; [9]): > 100 µM
GI50 [6]: 3.88 to 16.2 µM
Log10 TGI50 (NCI/ADR-RES): >−4.00
GI50 (NCI/ADR-RES; [7]): 5.28 µM
GI50 (NCI/ADR-RES; [8]): 5.25 µM
CC50 (NCI/ADR-RES; [9]): > 100 µM
Log10 TGI50 (A549/ATCC): >−4.00
GI50 (A549/ATCC; [7]): 4.74 µM
GI50 (A549/ATCC; [8]): 4.79 µM
CC50 (A549/ATCC; [9]): > 100 µM
Log10 TGI50 (NCI-H23): >−4.00
GI50 (NCI-H23; [7]): 5.52 µM
GI50 (NCI-H23; [8]): 5.5 µM
LC50 (NCI-H23; [9]): > 100 µM
GI50 (MDA-MB-435; [7]): 1.6 µM
GI50 (MDA-MB-435; [8]): 1.58 µM
CC50 (MDA-MB-435; [9]): > 100 µM
Log10 TGI50 (MDA-MB-435): −5.39
Log10 TGI50 (786-0): >−4.30
GI50 (786-0; [7]): 4.88 µM
GI50 (786-0; [8]): 4.9 µM
CC50 (786-0; [9]): > 100 µM
